Results from patent publication US20190365719A1, “COMBINATION TREATMENTS OF HSP90 INHIBITORS FOR ENHANCING TUMOR IMMUNOGENICITY AND METHODS OF USE THEREOF” (Massachusetts Institute of Technology, priority 2018, published 2019).

Legend:
[1] = system: SUM159, SKMEL, H838 cells; assay: Flow cytometry of MHC Class I on human tumor cell lines SUM159, SKMEL, H838; type: cell-based; details: low dose, 72 hours
Description: FIGS. 4A-4F are graphs showing low dose administration of HSP90i stimulates antigen presentation of tumor cells. […] FIG. 4C is a line graph showing relative MC38 cell number following exposure to increasing concentrations of Hsp90i; Live cell number was assessed with a standard metabolic dye-based (Alamar blue) assay and cell mass assessed by protein content using sulphorhodamine-B (SRB) assay. Representative histograms showing flow cytometric measurement of relative MHC Class I expression on the surface of triple-negative breast cancer (SUM159) (FIG. 4D), melanoma (SKMEL) (FIG. 4E), and lung adenocarcinoma (H838) (FIG. 4F) cells treated with DMSO (Veh) or low dose HSP990 for 72 hours.
MC38 cells were kindly provided by A. Sharpe from Dana Farber Cancer Institute. Cells were maintained in DMEM supplemented with 10% FBS and penicillin/streptomycin. SUM159, H838, SKMEL, and Colo cells were maintained in RPMI1640 supplemented with 10% FBS and penicillin/streptomycin. Cells were confirmed negative for mycoplasma contamination by PCR-based assay. […] Fluorescence as a measure of relative dye reduction was measured on an Envision plate reader (Perkin Elmer) with excitation at 544 nm and emission readings at 570 nm.
For analysis of MHC Class I surface expression, cells were seeded into 12 well plates (125,000/well). […] Cytometric data were plotted and analyzed with FloJo.

[2] = system: Ctrl or B2m KO MC38 tumors; assay: Ctrl or B2m KO MC38 tumors in mice; type: in vivo; details: 0.5 mg/kg/day
Description: (§1) FIGS. 6A-B are graphs showing anti-tumor activity of low-dose HSP90i is dependent on functional MHC Class I expression. Ctrl or B2m KO cells were generated by CRISPR-Cas9 mediated gene editing, and B2m KO cells were confirmed to no longer express MHC-I on the cell surface. FIG. 6A is a line graph showing relative number of viable Ctrl and B2m KO cells measured by standard dye reduction assay following 2-day exposure to increasing concentrations of HSP90i; FIG. 6B is a line graph showing size in mm^3 of Ctrl or B2m KO MC38 tumors in mice treated with vehicle (Veh, solid lines) or 0.5 mg/kg/day HSP90i (dotted lines) over 25 days post implantation.
(§2) For CRISPR/Cas9-mediated disruption of B2m, pSpCas9-P2A-GFP plasmid (Addgene #48138) was modified with a control sgRNA sequence ([…]) or an sgRNA targeting B2m ([…]). Log phase MC38 cells were transfected with Ctrl or B2m plasmids using Lipofectamine 2000 (Invitrogen) according to manufacturer's instructions. 24 hours later, single GFP positive cells were sorted into 96-well plates to isolate individual MC38 clones with the desired modification. After 2 weeks, isolated clones were tested by western blot to confirm loss of B2m expression. Ctrl and B2m clones were then passaged through syngeneic mice (C57/B16) to increase the uniformity of tumor establishment and progression in subsequent experiments.

MC38 cells = assay: Immunoblot analysis of MC38 cells; type: cell-based, mouse
Description: Protein extraction was performed by washing cells 2× with PBS. A volume of lysis buffer (50 mM Tris pH 7.5, 150 mM NaCl, 1 mM EDTA, 1% Triton-X100, 0.1% SDS, 1× Halt Protease/Phosphatase inhibitor) equal to 1/10 the culture media volume was added directly to the culture dish and incubated for 2-3 min on ice. Lysates were then thoroughly scraped and pipetted into 1.5 mL tubes and incubated for an additional 30 min on ice. Lysates were then cleared by centrifugation at 14,000×g for 15 min and quantified using BCA Assay. Lysates were separated by SDS-PAGE and transferred to 0.2 μm nitrocellulose membranes prior to washing with PBST, blocking with 5% milk in PBST, and incubation with primary antibody overnight at 4° C. All primary antibodies were diluted 1:1000 in 2.5% milk in PBST. Membranes were then washed 4×5 min with PBST and incubated with HRP conjugated secondary antibody at a 1:10,000 dilution in 2.5% milk in PBST, and washed again 4×5 min with PBST. Detection of secondary antibody was performed with SuperSignal West Pico or Femto ECL reagents (Pierce) and digitally imaged on a ChemiDoc (BioRad).
Immunoblotting was performed as described in Example 4. Briefly, protein extraction was performed by washing cells with PBS and then isolating whole cell lysates in lysis buffer (50 mM Tris pH 7.5, 150 mM NaCl, 1 mM EDTA, 1% Triton-X100, 0.1% SDS, 1× Halt Protease/Phosphatase inhibitor) Lysates were then cleared by centrifugation and quantified using BCA Assay. Lysates were separated by SDS-PAGE and transferred to 0.2 μm nitrocellulose membranes prior to washing with PBST, blocking with 5% milk in PBST, and incubation with primary antibody overnight at 4° C. All primary antibodies were diluted 1:1000 in 2.5% milk in PBST. Membranes were then washed and incubated with HRP conjugated secondary antibody. Detection of secondary antibody was performed with SuperSignal West Pico or Femto ECL reagents (Pierce) and digitally imaged on a ChemiDoc (BioRad).

[3] = system: Ctrl and B2m KO MC38 cells; assay: Viability of Ctrl and B2m KO MC38 cells in culture, dye reduction assay; type: cell-based, mouse; details: 2-day exposure to increasing concentrations
Description: as §1, §2

Q: How did the “MHC Class I expression on human tumor cell lines from breast, melanocytes and lung” value [1] turn out when COc1cccc(-c2cc(F)ccc2[C@H]2Cc3nc(N)nc(C)c3C(=O)N2)n1 [NVP-HSP990] was run?
A: induced upregulation of MHC Class I expression

Q: What about the “growth kinetics of B2m KO MC38 tumors, treated versus vehicle” value [2] of the same molecule?
A: nearly identical growth kinetics

Q: What about the “growth of Ctrl MC38 tumors” value [2] of the same molecule?
A: reduced the growth of Ctrl tumors

Q: What about the Psmb5 protein levels (MC38 cells; 72 hours) of the same molecule?
A: slightly decreased Psmb5 levels

Q: And the Psmb8 protein levels (MC38 cells; 72 hours)?
A: increased the protein levels of Psmb8

Q: And the “expression of downstream markers of IFN-γ signaling (Stat1, Stat3, pStat3, PD-L1)” value (MC38 cells; Hsp90i 60 nM or IFN-γ 10 ng/mL)?
A: minimal to undetectable effect

Q: What about the “sensitivity of Ctrl versus B2m KO MC38 cells in culture” value [3] of the same molecule?
A: no difference in sensitivity
